# Reference: article PMC6429214, “Design, Synthesis and Biological Evaluation of Isoxazole-Based CK1 Inhibitors Modified with Chiral Pyrrolidine Scaffolds” (Molecules, 2019)
# How the values were obtained:
# Test in all cases: 33PanQinase panel
# Format in all cases: biochemical
# SRMS = molecular target: T1, SRMS (Homo sapiens, UniProt Q9H3Y6); details: read-out: Residual Activity (%)
# T1 construct: purchased ProQinase
# Method: (§1) Figure 5 Dendrogram representation of the selectivity profile of 29d at a concentration of 1 μM in a panel of 320 wild-type kinases (ProQinase, Freiburg, Germany). The residual kinase activity was determined compared to DMSO control. Images were generated using TREEspot Software Tool, DISCOVERX CORPORATION 2010.
# (§2) Figure S1. X-ray crystal structure of intermediate compound 25d (ORTEP drawing with ellipsoids at 30% probability). CCDC 1589043 contains the supplementary crystallographic data for this paper. The data can be obtained free of charge from The Cambridge Crystallographic Data Centre via www.ccdc.cam.ac.uk/structures.
# (§3) Table S1 Data collection, structure refinement and Ramachrandran plot results of protein crystallization of CK1δ in complex with compound 30a and 30b, respectively.
# (§4) Root-mean-square deviations
# (§5) Additionally allowed 2.6 2.2
# (§6) Table S2. Selectivity profile of compound 29d. The inhibitor has been screened at a concentration of 1 µM over a panel of 320 wild-type protein kinases by ProQinase GmbH (Freiburg, Germany) using an activity-based radiometric 33PanQinase® assay. Results are presented as percentage of residual kinase activity relative to […]
# (§7) control. The final DMSO concentration was 1 % in each reaction-mix. Classification of protein kinase families refers to Manning et al. (Manning, G.; Whyte, D. B.; Martinez, R.; Hunter, T.; Sudarsanam, S. The Protein Kinase Complement of the Human Genome. Science 2002, 298, 1912–1934): AGC = containing PKA, PKG, PKC families; […] = containing Cdk, MAPK, GSK3, CLK families; STE = homologs of yeast sterile 7, sterile 11, sterile 20 kinases; TK = tyrosine kinase; TKL = tyrosine kinase-like.
# (§8) Kinase name Kinase family Residual Activity (%)
# MKNK1 = molecular target: T2, MKNK1 (Homo sapiens, UniProt Q9BUB5); details: MKNK1, 1 µM; read-out: Residual Activity (%)
# T2 construct: purchased ProQinase
# Method: as §1, §2, §3, §4, §5, §6, §7, §8
# GRK5 = molecular target: T3, GRK5 (Homo sapiens, UniProt P34947); details: GRK5, 1 µM; read-out: Residual Activity (%)
# T3 construct: purchased ProQinase
# T3 sequence (P34947 whole entry): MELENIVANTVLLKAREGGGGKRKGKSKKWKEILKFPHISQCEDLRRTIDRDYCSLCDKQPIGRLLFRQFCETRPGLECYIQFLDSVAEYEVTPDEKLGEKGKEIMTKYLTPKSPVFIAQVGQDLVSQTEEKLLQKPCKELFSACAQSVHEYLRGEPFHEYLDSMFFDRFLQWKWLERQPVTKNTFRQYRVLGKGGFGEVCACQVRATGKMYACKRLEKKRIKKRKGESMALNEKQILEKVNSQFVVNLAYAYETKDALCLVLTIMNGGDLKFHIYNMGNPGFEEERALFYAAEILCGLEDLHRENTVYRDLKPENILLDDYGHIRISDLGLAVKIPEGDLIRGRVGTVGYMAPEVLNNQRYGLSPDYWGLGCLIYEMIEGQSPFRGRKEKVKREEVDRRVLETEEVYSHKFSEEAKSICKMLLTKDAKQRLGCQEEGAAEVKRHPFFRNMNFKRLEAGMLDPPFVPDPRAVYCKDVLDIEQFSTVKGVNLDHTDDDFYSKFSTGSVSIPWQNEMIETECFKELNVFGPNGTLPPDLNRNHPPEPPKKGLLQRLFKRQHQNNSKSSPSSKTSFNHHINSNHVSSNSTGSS
# Method: as §1, §2, §3, §4, §5, §6, §7, §8
# SGK3 = molecular target: T4, SGK3 (Homo sapiens, UniProt Q96BR1); details: SGK3, 1 µM; read-out: Residual Activity (%)
# T4 construct: purchased ProQinase
# T4 sequence (Q96BR1 whole entry): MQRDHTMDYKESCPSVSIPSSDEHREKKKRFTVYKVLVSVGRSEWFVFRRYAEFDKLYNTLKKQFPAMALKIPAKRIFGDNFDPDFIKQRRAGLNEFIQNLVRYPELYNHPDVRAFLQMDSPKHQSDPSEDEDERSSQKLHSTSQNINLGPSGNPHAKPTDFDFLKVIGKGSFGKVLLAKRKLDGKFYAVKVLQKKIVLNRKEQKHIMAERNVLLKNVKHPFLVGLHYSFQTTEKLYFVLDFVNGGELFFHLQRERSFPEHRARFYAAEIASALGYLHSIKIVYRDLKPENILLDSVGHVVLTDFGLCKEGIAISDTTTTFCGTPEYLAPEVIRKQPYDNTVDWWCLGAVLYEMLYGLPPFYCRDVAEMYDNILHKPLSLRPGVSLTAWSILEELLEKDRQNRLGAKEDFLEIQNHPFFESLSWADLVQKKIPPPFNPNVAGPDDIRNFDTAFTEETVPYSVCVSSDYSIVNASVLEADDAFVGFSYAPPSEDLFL
# Method: as §1, §2, §3, §4, §5, §6, §7, §8
# CDC42BPB = molecular target: T5, CDC42BPB (Homo sapiens, UniProt Q9Y5S2); details: read-out: Residual Activity (%)
# T5 construct: purchased ProQinase
# Method: as §1, §2, §3, §4, §5, §6, §7, §8
# GRK3 = molecular target: T6, GRK3 (Homo sapiens, UniProt P35626); details: GRK3, 1 µM; read-out: Residual Activity (%)
# T6 construct: purchased ProQinase
# Method: as §1, §2, §3, §4, §5, §6, §7, §8
# SIK2 = molecular target: T7, SIK2 (Homo sapiens, UniProt Q9H0K1); details: SIK2, 1 µM; read-out: Residual Activity (%)
# T7 construct: purchased ProQinase
# Method: as §1, §2, §3, §4, §5, §6, §7, §8
# NEK6 = molecular target: T8, NEK6 (Homo sapiens, UniProt Q9HC98); details: NEK6, 1 µM; read-out: Residual Activity (%)
# T8 construct: purchased ProQinase
# Method: as §1, §2, §3, §4, §5, §6, §7, §8
# MINK1 = molecular target: T9, MINK1 (Homo sapiens, UniProt Q8N4C8); details: MINK1, 1 µM; read-out: Residual Activity (%)
# T9 construct: purchased ProQinase
# Method: as §1, §2, §3, §4, §5, §6, §7, §8
# IRAK4 (untagged) = molecular target: T10, IRAK4 (untagged) (Homo sapiens, UniProt Q9NWZ3); details: read-out: Residual Activity (%)
# T10 construct: purchased ProQinase
# Method: as §1, §2, §3, §4, §5, §6, §7, §8
# SAK = molecular target: T11, SAK (Homo sapiens, UniProt O00444); details: read-out: Residual Activity (%)
# T11 construct: purchased ProQinase
# Method: as §1, §2, §3, §4, §5, §6, §7, §8
# CDK2/CycA2 = molecular target: T12, CDK2/CycA2 (Homo sapiens, UniProt P24941); details: CDK2/CycA2, 1 µM; read-out: Residual Activity (%)
# T12 construct: purchased ProQinase
# Method: as §1, §2, §3, §4, §5, §6, §7, §8
# YES = molecular target: T13, YES (Homo sapiens, UniProt P07947); details: read-out: Residual Activity (%)
# T13 construct: purchased ProQinase
# Method: as §1, §2, §3, §4, §5, §6, §7, §8
# TYK2 = molecular target: T14, TYK2 (Homo sapiens, UniProt P29597); details: TYK2, 1 µM; read-out: Residual Activity (%)
# T14 construct: purchased ProQinase
# Method: as §1, §2, §3, §4, §5, §6, §7, §8
# PRKG1 = molecular target: T15, PRKG1 (Homo sapiens, UniProt Q13976); details: PRKG1, 1 µM; read-out: Residual Activity (%)
# T15 construct: purchased ProQinase
# Method: as §1, §2, §3, §4, §5, §6, §7, §8
# CDK16/CycY = molecular target: T16, CDK16/CycY (Homo sapiens, UniProt Q00536); details: read-out: Residual Activity (%)
# T16 construct: purchased ProQinase
# T16 sequence (Q00536 whole entry): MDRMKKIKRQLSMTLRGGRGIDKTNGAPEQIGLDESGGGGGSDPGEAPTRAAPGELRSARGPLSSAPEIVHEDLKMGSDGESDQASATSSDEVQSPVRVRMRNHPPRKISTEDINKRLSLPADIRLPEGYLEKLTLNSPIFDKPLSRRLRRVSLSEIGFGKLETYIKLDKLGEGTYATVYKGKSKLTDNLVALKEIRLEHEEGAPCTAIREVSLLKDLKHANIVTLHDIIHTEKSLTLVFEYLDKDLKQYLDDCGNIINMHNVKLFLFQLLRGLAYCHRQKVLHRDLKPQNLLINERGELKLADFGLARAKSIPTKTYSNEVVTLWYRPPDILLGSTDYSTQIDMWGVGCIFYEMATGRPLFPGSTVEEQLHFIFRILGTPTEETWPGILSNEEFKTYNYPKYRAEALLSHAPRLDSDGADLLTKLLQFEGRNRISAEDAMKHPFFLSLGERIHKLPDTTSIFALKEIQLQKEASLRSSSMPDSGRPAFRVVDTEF
# T16 sequence (Q8ND76 whole entry partner): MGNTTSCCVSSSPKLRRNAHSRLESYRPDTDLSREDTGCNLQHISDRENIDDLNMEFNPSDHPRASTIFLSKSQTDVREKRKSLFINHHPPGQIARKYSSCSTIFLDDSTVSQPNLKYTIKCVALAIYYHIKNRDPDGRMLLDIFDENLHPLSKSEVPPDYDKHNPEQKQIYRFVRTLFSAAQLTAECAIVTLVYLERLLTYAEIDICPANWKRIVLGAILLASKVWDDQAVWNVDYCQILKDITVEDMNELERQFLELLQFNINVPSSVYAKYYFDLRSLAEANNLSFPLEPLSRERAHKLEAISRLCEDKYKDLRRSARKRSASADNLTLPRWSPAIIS
# Method: as §1, §2, §3, §4, §5, §6, §7, §8
# CAMK1D = molecular target: T17, CAMK1D (Homo sapiens, UniProt Q8IU85); details: read-out: Residual Activity (%)
# T17 construct: purchased ProQinase
# Method: as §1, §2, §3, §4, §5, §6, §7, §8
# NEK2 = molecular target: T18, NEK2 (Homo sapiens, UniProt P51955); details: NEK2, 1 µM; read-out: Residual Activity (%)
# T18 construct: purchased ProQinase
# Method: as §1, §2, §3, §4, §5, §6, §7, §8
# EIF2AK3 = molecular target: T19, EIF2AK3 (Homo sapiens, UniProt Q9NZJ5); details: EIF2AK3, 1 µM; read-out: Residual Activity (%)
# T19 construct: purchased ProQinase
# T19 sequence (Q9NZJ5 30-1116): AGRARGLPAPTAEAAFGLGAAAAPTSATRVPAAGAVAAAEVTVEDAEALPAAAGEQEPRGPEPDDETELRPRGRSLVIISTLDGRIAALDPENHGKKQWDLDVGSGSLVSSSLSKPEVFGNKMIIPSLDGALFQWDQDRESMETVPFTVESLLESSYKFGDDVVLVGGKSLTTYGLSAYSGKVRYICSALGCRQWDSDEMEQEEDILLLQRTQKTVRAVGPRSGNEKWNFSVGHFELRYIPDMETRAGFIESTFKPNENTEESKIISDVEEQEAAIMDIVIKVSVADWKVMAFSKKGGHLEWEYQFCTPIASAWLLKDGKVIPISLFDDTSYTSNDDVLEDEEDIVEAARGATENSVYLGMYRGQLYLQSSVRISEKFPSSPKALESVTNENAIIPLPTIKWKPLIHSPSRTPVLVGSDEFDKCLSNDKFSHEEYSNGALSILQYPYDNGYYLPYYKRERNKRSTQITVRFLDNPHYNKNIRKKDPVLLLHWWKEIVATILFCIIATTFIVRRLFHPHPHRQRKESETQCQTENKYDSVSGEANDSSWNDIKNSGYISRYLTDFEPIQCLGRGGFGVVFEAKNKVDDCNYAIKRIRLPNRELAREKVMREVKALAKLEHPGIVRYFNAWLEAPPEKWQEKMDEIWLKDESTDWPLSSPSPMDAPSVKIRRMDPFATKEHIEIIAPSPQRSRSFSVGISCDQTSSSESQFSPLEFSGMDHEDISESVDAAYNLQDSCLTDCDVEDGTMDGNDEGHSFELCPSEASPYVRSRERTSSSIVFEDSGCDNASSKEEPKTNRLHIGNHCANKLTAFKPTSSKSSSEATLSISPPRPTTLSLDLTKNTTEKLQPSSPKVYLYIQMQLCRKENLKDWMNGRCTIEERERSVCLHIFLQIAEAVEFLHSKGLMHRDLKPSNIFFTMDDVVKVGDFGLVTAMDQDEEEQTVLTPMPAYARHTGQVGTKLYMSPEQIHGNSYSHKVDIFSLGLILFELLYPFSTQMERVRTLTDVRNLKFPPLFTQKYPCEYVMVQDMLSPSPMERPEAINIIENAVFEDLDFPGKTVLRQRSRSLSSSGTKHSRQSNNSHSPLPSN
# Method: as §1, §2, §3, §4, §5, §6, §7, §8
# MARK3 = molecular target: T20, MARK3 (Homo sapiens, UniProt P27448); details: MARK3, 1 µM; read-out: Residual Activity (%)
# T20 construct: purchased ProQinase
# T20 sequence (P27448 whole entry): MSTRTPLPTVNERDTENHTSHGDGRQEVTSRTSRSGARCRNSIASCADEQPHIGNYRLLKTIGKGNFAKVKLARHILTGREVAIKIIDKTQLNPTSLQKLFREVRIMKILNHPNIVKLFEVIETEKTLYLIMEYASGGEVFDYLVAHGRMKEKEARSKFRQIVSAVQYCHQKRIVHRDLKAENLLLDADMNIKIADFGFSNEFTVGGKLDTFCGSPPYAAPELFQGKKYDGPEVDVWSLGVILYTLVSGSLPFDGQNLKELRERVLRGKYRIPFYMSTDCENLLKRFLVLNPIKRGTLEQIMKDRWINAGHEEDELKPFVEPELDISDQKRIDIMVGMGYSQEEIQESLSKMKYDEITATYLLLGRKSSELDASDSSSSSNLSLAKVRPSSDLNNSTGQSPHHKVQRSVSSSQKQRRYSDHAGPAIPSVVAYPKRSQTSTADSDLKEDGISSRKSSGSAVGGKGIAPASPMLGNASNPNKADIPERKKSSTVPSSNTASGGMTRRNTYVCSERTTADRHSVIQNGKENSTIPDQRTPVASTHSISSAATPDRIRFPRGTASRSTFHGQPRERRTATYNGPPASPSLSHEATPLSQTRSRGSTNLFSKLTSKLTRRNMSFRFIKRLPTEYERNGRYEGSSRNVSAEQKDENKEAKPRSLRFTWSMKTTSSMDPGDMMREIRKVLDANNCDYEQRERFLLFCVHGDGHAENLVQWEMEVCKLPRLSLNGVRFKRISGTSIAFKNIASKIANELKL
# Method: as §1, §2, §3, §4, §5, §6, §7, §8
# S6K-beta = molecular target: T21, S6K-beta (Homo sapiens, UniProt Q9UBS0); details: read-out: Residual Activity (%)
# T21 construct: purchased ProQinase
# Method: as §1, §2, §3, §4, §5, §6, §7, §8
# FER = molecular target: T22, FER (Homo sapiens, UniProt P16591); details: read-out: Residual Activity (%)
# T22 construct: purchased ProQinase
# Method: as §1, §2, §3, §4, §5, §6, §7, §8
# FAK aa2-1052 = molecular target: T23, FAK aa2-1052 (Homo sapiens, UniProt Q05397); details: FAK aa2-1052, 1 µM; read-out: Residual Activity (%)
# T23 construct: purchased ProQinase
# Method: as §1, §2, §3, §4, §5, §6, §7, §8
# RON = molecular target: T24, RON (Homo sapiens, UniProt Q04912); details: read-out: Residual Activity (%)
# T24 construct: purchased ProQinase
# Method: as §1, §2, §3, §4, §5, §6, §7, §8
# RPS6KA6 = molecular target: T25, RPS6KA6 (Homo sapiens, UniProt Q9UK32); details: RPS6KA6, 1 µM; read-out: Residual Activity (%)
# T25 construct: purchased ProQinase
# Method: as §1, §2, §3, §4, §5, §6, §7, §8
# MERTK = molecular target: T26, MERTK (Homo sapiens, UniProt Q12866); details: read-out: Residual Activity (%)
# T26 construct: purchased ProQinase
# Method: as §1, §2, §3, §4, §5, §6, §7, §8
# NEK3 = molecular target: T27, NEK3 (Homo sapiens, UniProt P51956); details: NEK3, 1 µM; read-out: Residual Activity (%)
# T27 construct: purchased ProQinase
# Method: as §1, §2, §3, §4, §5, §6, §7, §8
# LIMK1 = molecular target: T28, LIMK1 (Homo sapiens, UniProt P53667); details: LIMK1, 1 µM; read-out: Residual Activity (%)
# T28 construct: purchased ProQinase
# T28 sequence (P53667 whole entry): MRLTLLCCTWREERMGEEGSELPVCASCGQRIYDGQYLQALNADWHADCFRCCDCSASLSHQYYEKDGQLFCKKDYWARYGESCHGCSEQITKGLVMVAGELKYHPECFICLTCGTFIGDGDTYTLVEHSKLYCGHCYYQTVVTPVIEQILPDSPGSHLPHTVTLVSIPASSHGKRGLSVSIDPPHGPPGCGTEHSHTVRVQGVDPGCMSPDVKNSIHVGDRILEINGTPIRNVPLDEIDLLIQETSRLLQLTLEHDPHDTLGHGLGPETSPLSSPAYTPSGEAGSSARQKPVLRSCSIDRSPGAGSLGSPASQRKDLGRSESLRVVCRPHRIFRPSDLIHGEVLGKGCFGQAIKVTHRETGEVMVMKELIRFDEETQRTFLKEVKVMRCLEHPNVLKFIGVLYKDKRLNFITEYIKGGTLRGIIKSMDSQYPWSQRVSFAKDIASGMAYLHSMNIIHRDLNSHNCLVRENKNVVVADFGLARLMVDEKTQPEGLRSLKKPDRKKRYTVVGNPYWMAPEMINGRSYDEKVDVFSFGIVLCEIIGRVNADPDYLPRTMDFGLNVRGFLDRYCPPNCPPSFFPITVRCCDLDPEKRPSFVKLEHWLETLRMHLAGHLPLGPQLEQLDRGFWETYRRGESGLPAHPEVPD
# Method: as §1, §2, §3, §4, §5, §6, §7, §8
# T1 sequence (Q9H3Y6 whole entry): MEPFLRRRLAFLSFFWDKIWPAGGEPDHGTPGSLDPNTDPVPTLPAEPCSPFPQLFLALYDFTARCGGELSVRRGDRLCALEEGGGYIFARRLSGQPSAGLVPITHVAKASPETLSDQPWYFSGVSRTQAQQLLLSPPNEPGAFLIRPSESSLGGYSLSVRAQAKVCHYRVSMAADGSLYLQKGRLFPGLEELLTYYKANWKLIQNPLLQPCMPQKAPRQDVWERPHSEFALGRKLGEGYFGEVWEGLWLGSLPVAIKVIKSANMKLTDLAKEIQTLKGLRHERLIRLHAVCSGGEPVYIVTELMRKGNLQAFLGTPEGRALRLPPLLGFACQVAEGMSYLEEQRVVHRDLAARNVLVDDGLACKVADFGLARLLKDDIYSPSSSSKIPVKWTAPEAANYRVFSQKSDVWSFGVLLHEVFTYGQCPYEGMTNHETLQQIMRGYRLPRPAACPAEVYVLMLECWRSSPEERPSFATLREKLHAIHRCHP
compound,measurement,setting,value
COc1ccc(-c2cc(C(=O)Nc3cc(-c4c(-c5ccc(F)cc5)noc4C(C)C)ccn3)n(CC3NCC(O)C3O)c2)cc1 (stereo not shown) [29d],remaining activity at 1 µM,SRMS,127%
same,remaining activity at 1 µM,MKNK1,82%
same,remaining activity at 1 µM,GRK5,97%
same,remaining activity at 1 µM,SGK3,97%
same,remaining activity at 1 µM,CDC42BPB,86%
same,remaining activity at 1 µM,GRK3,109%
same,remaining activity at 1 µM,SIK2,98%
same,remaining activity at 1 µM,NEK6,94%
same,remaining activity at 1 µM,MINK1,82%
same,remaining activity at 1 µM,IRAK4 (untagged),89%
same,remaining activity at 1 µM,SAK,92%
same,remaining activity at 1 µM,CDK2/CycA2,102%
same,remaining activity at 1 µM,YES,126%
same,remaining activity at 1 µM,TYK2,85%
same,remaining activity at 1 µM,PRKG1,89%
same,remaining activity at 1 µM,CDK16/CycY,112%
same,remaining activity at 1 µM,CAMK1D,89%
same,remaining activity at 1 µM,NEK2,89%
same,remaining activity at 1 µM,EIF2AK3,104%
same,remaining activity at 1 µM,MARK3,96%
same,remaining activity at 1 µM,S6K-beta,96%
same,remaining activity at 1 µM,FER,98%
same,remaining activity at 1 µM,FAK aa2-1052,120%
same,remaining activity at 1 µM,RON,115%
same,remaining activity at 1 µM,RPS6KA6,89%
same,remaining activity at 1 µM,MERTK,76%
same,remaining activity at 1 µM,NEK3,96%
same,remaining activity at 1 µM,LIMK1,105%
